Experimental data: ChEMBL document CHEMBL1131964, “Preparation and receptor binding affinities of cyclic C-terminal neurotensin (8-13) and (9-13) analogues” (Bioorg Med Chem Lett, 1999)

Biological target: Neurotensin receptor (Homo sapiens, UniProt O95665+P30989)
Test: Binding ability to compete with [125I]Tyr3-NT (0.15 nM) for human NT receptors cloned in CHO cells.
Type: cell-based

Row | Ki [nM] | Compound
1 | 450 | CC[C@@H](C)[C@@H](NC(=O)[C@@H]1Cc2ccc(cc2)OCCCCCC(=O)N[C@H](CCCN=C(N)N)C(=O)N2CCC[C@H]2C(=O)N1)C(=O)N[C@@H](CC(C)C)C(=O)O
2 | > 2000 | CC[C@@H](C)[C@@H](NC(=O)[C@@H]1Cc2ccc(cc2)OCCCCCC(=O)N2CCC[C@H]2C(=O)N1)C(=O)N[C@@H](CC(C)C)C(=O)O
3 | 28 | CC[C@H](C)[C@H](NC(=O)[C@H](Cc1ccc(O)cc1)NC(=O)[C@@H]1CCCN1C(=O)[C@@H](N)CCCN=C(N)N)C(=O)N[C@@H](CC(C)C)C(=O)O
